# Measurements taken from patent US11225474B2, “Crystalline salt forms of 3-(1,2,4-triazolo[4,3-a]pyridine-3-ylethynyl)-4-methyl-N-(4-((4-methylpiperazin-1-yl)methyl)-3-trifluoromethylphenyl)benzamide for medical application” (priority 2016, dated 2022).
# Where two headings read alike, the source gives them in different places.
# Experiments:
# [1] = in vivo; conditions: for Vd / half-life / clearance / AUC / bioavailability: in vivo; for Vd: read-out: apparent volume of distribution Vd; for half-life: read-out: half-life period (converted); for clearance: intravenous administration; for bioavailability: read-out: bioavailability F
# Description: Clearance following intravenous administration is quite high: 2.12 L/h/kg for dogs, 1.61 L/h/kg for rats. A large apparent volume of distribution (Vd=14.1 L/kg for dogs, 6.16 L/kg for rats) indicates extensive drug distribution in tissues.
# [2] = test system: CCRF-CEM; assay: Cytotoxicity, acute lymphoblastic leukemia line; assay type: cell-based, human
# [3] = Daily intragastric administration during 28 days, rats; conditions: rat, in vivo, po; for MTD at 28 days: daily intragastric
# [4] = MTD at a single administration to dogs; conditions: dog, in vivo
# Procedure: The MTD of the drug at a single administration to dogs was 45 mg/kg (38 mg/kg calculated as a free base).
# [5] = Drug distribution in rat tissues; assay type: in vivo
# [6] = Hygroscopicity by gravimetric moisture absorption; assay type: physicochemical; conditions: relative air humidity of 90%
# Description: Samples were also studied using the following methods: polarization microscopy (Leica DMRB Polarized Microscope, resolution of 1600×1200)—to confirm crystallinity, ion chromatography—to confirm anion and cation stoichiometric proportion, differential scanning calorimetry (DSC) and thermogravimetric analysis (TGA)—to confirm composition and study of temperature stability of samples; ^1H NMR (500 MHz Bruker AVANCE 500.13 MHz, solvent DMSO-d6)—to confirm structure, assess purity and content of organic solvents; gravimetric moisture absorption—to assess hygroscopicity. DSC was carried out using Mettler 822e DSC apparatus. The measuring system was calibrated according to ISO 11357-1 standard based on standard substances phase changes (C6H12; Hg; benzoic acid; Ga; KNO3; In; Sn; Bi; CsCl; purity grade 99.99%). Temperature calibration regular error (determined based on In) is 0.1°. Samples were tested in standard aluminum cells in the artificial air flow at a temperature range of 30-300° C. with heating speed of 10°/min. TG measurements were taken using Mettler 851e SDTA/TGA TG analyzer. The apparatus was calibrated using standard substances melting points (Ag; Al; Bi; In; Sn; purity grade of 99.99%). Weighing error is NMT 0.1% (determined using CaC2O4·2H2O standard). The test was carried out in a standard open aluminum container in the artificial air flow at a temperature range of 30-150° C. with heating speed of 10°/min. To avoid dehydration, the material was not exposed to mechanical treatment before taking measurements.
# [7] = target: FGR (Homo sapiens, UniProt P09769); assay: Human kinase panel at 100 nM; assay type: biochemical
# [8] = target: ZAK/MLTK (Homo sapiens, UniProt Q9NYL2); assay: Human kinase panel at 100 nM; assay type: biochemical
# [9] = target: RAF1 (Homo sapiens, UniProt P04049); assay: Human kinase panel at 100 nM; assay type: biochemical
# [10] = test system: Drosophila melanogaster; assay: Gene toxicity: induced somatic mosaicism; assay type: in vivo; conditions: all doses tested
# [11] = test system: BaF3/BCR-ABL; assay: Toxicity to transduced BaF3 model tumor cell line; assay type: cell-based, murine; conditions: Mus musculus
# [12] = target: CYP2B6 (Homo sapiens, UniProt P20813); assay: Metabolism study using cytochrome enzyme drugs; assay type: in vitro ADME; conditions: 2B6
# Sequence of CYP2B6 (P20813 whole entry): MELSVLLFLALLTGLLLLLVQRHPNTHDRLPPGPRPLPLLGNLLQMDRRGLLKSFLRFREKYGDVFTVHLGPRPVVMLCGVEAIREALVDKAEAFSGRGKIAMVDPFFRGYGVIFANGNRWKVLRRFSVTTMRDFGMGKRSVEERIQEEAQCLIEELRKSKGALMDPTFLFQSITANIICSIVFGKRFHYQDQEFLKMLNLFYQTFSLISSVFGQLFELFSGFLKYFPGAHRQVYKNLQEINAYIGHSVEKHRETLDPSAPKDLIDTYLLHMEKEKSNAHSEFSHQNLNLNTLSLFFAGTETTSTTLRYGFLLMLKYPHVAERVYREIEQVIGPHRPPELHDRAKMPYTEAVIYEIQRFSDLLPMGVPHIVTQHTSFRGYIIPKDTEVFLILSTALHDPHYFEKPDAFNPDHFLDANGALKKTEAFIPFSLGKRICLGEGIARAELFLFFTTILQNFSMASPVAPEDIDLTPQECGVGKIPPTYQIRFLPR
# Sequence of RAF1 (P04049 whole entry): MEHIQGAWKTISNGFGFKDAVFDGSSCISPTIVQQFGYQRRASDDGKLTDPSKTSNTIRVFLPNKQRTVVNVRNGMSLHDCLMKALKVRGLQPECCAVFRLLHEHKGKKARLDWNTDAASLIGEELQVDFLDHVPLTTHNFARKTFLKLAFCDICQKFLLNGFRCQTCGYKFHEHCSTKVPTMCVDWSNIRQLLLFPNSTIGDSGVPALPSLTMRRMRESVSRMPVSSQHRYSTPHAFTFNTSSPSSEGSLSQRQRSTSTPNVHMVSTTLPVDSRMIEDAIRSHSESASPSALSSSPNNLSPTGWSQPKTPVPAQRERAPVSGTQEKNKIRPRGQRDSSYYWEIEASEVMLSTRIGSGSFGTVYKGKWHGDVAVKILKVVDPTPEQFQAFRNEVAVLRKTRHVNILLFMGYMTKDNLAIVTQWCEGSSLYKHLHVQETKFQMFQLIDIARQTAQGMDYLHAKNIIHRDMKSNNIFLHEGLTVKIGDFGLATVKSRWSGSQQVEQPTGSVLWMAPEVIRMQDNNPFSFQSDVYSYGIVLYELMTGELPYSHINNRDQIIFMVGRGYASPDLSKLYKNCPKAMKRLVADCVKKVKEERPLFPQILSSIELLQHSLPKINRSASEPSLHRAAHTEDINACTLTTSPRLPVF
# Sequence of FGR (P09769 whole entry): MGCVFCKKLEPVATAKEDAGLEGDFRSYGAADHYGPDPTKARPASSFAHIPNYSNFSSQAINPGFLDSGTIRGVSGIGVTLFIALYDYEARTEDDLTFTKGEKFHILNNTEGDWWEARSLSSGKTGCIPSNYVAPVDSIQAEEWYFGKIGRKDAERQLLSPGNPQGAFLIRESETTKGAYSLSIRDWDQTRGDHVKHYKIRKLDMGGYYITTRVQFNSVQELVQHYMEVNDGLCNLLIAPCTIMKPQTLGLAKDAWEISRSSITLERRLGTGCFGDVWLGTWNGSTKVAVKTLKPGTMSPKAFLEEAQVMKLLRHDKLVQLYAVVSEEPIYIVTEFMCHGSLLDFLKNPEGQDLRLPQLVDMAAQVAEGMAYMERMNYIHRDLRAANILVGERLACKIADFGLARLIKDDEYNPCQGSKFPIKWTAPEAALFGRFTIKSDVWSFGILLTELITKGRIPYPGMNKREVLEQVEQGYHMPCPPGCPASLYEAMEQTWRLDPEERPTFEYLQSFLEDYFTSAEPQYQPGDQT
# Sequence of ZAK/MLTK (Q9NYL2 whole entry): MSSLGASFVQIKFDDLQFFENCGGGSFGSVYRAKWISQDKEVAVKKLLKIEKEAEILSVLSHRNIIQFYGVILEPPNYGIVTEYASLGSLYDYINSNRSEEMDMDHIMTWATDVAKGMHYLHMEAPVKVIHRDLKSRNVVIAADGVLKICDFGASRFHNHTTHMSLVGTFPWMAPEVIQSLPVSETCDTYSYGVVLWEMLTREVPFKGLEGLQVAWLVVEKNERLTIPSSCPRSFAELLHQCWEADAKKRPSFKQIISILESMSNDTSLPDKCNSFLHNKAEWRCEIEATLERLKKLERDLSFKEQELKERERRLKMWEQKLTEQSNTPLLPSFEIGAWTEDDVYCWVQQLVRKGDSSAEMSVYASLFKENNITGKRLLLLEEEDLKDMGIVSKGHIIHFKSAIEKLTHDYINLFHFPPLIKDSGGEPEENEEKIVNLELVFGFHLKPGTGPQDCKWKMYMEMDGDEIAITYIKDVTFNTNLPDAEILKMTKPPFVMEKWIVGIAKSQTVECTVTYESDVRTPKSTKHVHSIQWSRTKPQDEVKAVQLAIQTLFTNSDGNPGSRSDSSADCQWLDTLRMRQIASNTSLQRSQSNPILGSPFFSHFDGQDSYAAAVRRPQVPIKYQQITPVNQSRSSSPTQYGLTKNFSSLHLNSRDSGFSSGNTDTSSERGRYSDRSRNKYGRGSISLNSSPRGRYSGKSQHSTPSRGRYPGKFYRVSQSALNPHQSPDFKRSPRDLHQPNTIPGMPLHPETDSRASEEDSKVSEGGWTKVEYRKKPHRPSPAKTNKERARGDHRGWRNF
compound,measurement,setting,value
"CS(=O)(=O)O.Cc1ccc(C(=O)Nc2ccc(CN3CCN(C)CC3)c(C(F)(F)F)c2)cc1C#Cc1nnc2ccccn12 [methanesulfonic acid salt, 3-(1,2,4-triazolo[4,3-a]pyridine-3-ylethynyl)-4-methyl-N-(4-((4-methylpiperazin-1-yl)methyl)-3-trifluoromethylphenyl)benzamide mono methanesulfonic acid salt]",Vd,"[1]; dog, dogs",14.1 L/kg
same,half-life,"[1]; dog, dogs",~7 h
same,clearance,"[1]; dog, dogs",35.3 mL/min/kg
same,AUC,"[1]; dog, oral, dogs, 2 mg/kg",420 ng·h/mL
same,AUC,"[1]; dog, oral, dogs, 22 mg/kg",5480 ng·h/mL
same,AUC,"[1]; dog, oral, dogs, 45 mg/kg",5170 ng·h/mL
same,bioavailability,"[1]; dog, oral, dogs, 2 to 22 mg/kg (2 to 19 mg/kg as free base)",45.9 to 66.1%
same,maximum plasma concentration,"[1]; oral, dogs, 2 to 45 mg/kg",31.8 to 224 ng/mL
same,time to maximum plasma concentration,"[1]; oral, dogs, 2 to 45 mg/kg",3 to 8.5 h
same,maximum concentration,"[1]; oral, rats, 5 mg/kg",72 ng/mL
same,maximum concentration,"[1]; oral, rats, 80 mg/kg",1250 ng/mL
same,time to maximum concentration,"[1]; oral, rats, 5 to 80 mg/kg",2.3 to 5.3 h
same,clearance,"[1]; rat, rats",26.8 mL/min/kg
same,AUC,"[1]; rat, oral, rats, 5 mg/kg",430 ng·h/mL
same,AUC,"[1]; rat, oral, rats, 80 mg/kg",21100 ng·h/mL
same,bioavailability,"[1]; rat, oral, rats, 5 to 80 mg/kg (4.2 to 68 mg/kg as free base)",13.8 to 59.5%
same,Vd,"[1]; rat, rats",6.16 L/kg
same,half-life,"[1]; rat, rats",~3 h
same,cytotoxicity,[2],showed cytotoxicity
same,Cmax,"[3]; Day 28, dose of 50 mg/kg daily intragastric",661 ± 289 ng/mL
same,AUC,"[3]; Day 28, dose of 50 mg/kg daily intragastric, read-out: AUC24",8600 ng·h/mL
same,MTD at 28 days,"[3]; 2 separate studies, dose of the salt",50 to 73 mg/kg
same,MTD at 28 days,[3]; calculated as a free base,42 to 62 mg/kg
same,MTD,[4]; calculated as a free base,38 mg/kg
same,MTD,[4]; dose of the salt,45 mg/kg
same,Kp,"[5]; bone marrow, read-out: concentration in bone marrow relative to plasma",27
same,Kp,"[5]; brain, read-out: exposure in brain relative to blood plasma exposure",~0.2
same,Kp,"[5]; kidneys, read-out: concentration in kidneys relative to plasma",34
same,Kp,"[5]; liver, read-out: concentration in liver relative to plasma",21
same,Kp,"[5]; lungs, read-out: concentration in lungs relative to blood plasma",~71
same,Kp,"[5]; spleen, read-out: concentration in spleen relative to plasma",45
same,water absorbed (hygroscopicity),[6],less than two mass percent of water
same,inhibition at 0.1 µM,[7],> 50%
same,inhibition at 0.1 µM,[8],> 50%
same,inhibition at 0.1 µM,[9],> 50%
same,genotoxic effects,[10],had no genotoxic effects
same,IC50,[11],5 nM
same,participation of the isoform in metabolism,[12],does not involve
